In paper PMC11284788, “NN1213 – A Potent, Long-Acting, and Selective Analog of Human Amylin” (Journal of Medicinal Chemistry, 2024):

Settings: in vivo, iv
Protocol: Blood samples were collected at fixed time points postdose to determine full PK profiles. Plasma samples were analyzed by ELISA. Plasma concentration–time profiles were analyzed by noncompartmental analysis.
Rabbits: Female rabbits (New Zealand white, Charles River; 21–23 weeks; 2.5–3.5 kg) were group-
housed (10 per cage) in normal day–night rhythm from arrival and had free access to food and water.
The rabbits were treated against coccidiosis during their 5-week acclimation period upon arrival. Iv
dosing was performed as a bolus injection into an ear vein with a dosing volume of 0.1 mL/kg. The
dosing solution was at room temperature before injection. Venous blood sampling was performed
directly through puncture of an ear vein using a needle. A full plasma concentration–time profile was
obtained from each animal.
Blood (300 µL) was collected directly into test
tubes containing EDTA buffer (Microvette CB 300 K2E). Samples were kept on wet ice until
centrifugation (10 min, 4 °C, 3000 rpm). Plasma (100 µL) was transferred immediately to Micronic
tubes and kept at –20 °C until analysis.
Plasma analysis: Plasma samples were analyzed by a commercially available kit (Millipore, Human
Amylin ELISA, cat. #EZHA-52-K). […]
was applied and the plate was read on a fluorescent reader with an excitation/emission wavelength of
samples. The lower limit of quantification (LLOQ) was 100–500 pM.

CC[C@H](C)[C@H](NC(=O)[C@H](C)NC(=O)CNC(=O)[C@H](Cc1ccccc1)NC(=O)[C@H](CC(N)=O)NC(=O)[C@@H]1CCCN1C(=O)[C@H](CO)NC(=O)[C@H](CO)NC(=O)[C@H](Cc1c[nH]cn1)NC(=O)[C@H](CCCNC(=N)N)NC(=O)[C@H](CC(C)C)NC(=O)[C@H](Cc1ccccc1)NC(=O)[C@H](CC(=O)O)NC(=O)[C@H](C)NC(=O)[C@H](CC(C)C)NC(=O)[C@H](CCCNC(=N)N)NC(=O)[C@H](CCC(N)=O)NC(=O)[C@@H](NC(=O)[C@H](C)NC(=O)[C@@H]1CSSC[C@H](NC(=O)[C@@H](N)CCCCNC(=O)CC[C@H](NC(=O)CC[C@H](NC(=O)CCCCCCCCCCCCCCCCCCC(=O)O)C(=O)O)C(=O)O)C(=O)N[C@@H](CC(N)=O)C(=O)N[C@@H]([C@@H](C)O)C(=O)N[C@@H](C)C(=O)N[C@@H]([C@@H](C)O)C(=O)N1)[C@@H](C)O)C(=O)N1CCC[C@H]1C(=O)N[C@@H](CO)C(=O)N[C@@H](CO)C(=O)N[C@H](C(=O)N[C@@H](CC(N)=O)C(=O)N[C@H](C(=O)NCC(=O)N[C@@H](CO)C(=O)N[C@@H](CCCNC(=N)N)C(=O)N[C@H](C(=O)N[C@@H](Cc1ccc(O)cc1)C(N)=O)[C@@H](C)O)C(C)C)[C@@H](C)O [NN1213]
terminal plasma half-life (T1/2), rabbit: approximately 50 h
